Test results reported in paper PMC4766629, “Biochemical and functional characterization of Plasmodium falciparum DNA polymerase δ” (Malaria Journal, 2016).
Values after ≈ are worked out from the molar mass of the structure shown. Where two headings read alike, the source gives them in different places.

Key:
[1] = biological target: T1, PfPolδ-cat (Plasmodium falciparum, UniProt P30315); assay: DNA polymerase assay, inhibitory effects of compounds on PfPolδ-cat activity; format: biochemical
T1 construct: The 3285-bp full-length PfPolδ-cat of P. falciparum K1 strain was successfully amplified and cloned; thioredoxin (N); His6 (C); made in house; host or cells: Escherichia coli LMG194
Protocol: DNA polymerase activity was assayed using activated calf thymus DNA (CT-DNA) (Sigma-Aldrich, MA, USA) as substrate. DNA polymerase assay was conducted in a 50-μl reaction mixture containing 10 μg of activated CT-DNA, 20 mM potassium phosphate buffer pH 8, 10 mM MgCl2, 2 mM DTT, 10 μg BSA, 50 μM each of dGTP, dATP and dCTP, 1 μM dTTP, 2.5 μM [α-^32P]dTTP (800 Ci/mmol; PerkinElmer, MA, USA), and 42 nM PfPolδ-cat. After incubation for 1 h at 37 °C, the reactions were terminated by adding a 250-μl mixture of 20 mM EDTA, 0.1 mg/ml BSA and 100 μl of 50 % trichloroacetic acid (TCA), followed by sedimentation. The precipitate was then washed twice with 1 % TCA and [^32P]dTMP incorporation was measured in a 1450 MicroBeta® Trilux Liquid Scintillation Counter (Perkin Elmer). One unit of DNA polymerase activity is defined as the amount of enzyme that catalyzes the incorporation of 1 nmol of dTMP into DNA in 1 h at 37 °C.
Inhibitory activity of 11 compounds consisting of substrate and nucleotide analogs and potential active site occupiers of PfPolδ-cat were compared with known Pol δ inhibitors, aphidicolin and N-ethylmaleimide (NEM). Stock solution (6 mM) of aphidicolin was prepared in dimethylsulfoxide (DMSO) and that of NEM (400 mM) in absolute ethanol. Stock solutions (10 mM) of N^2-(4-butylphenyl)-2′-deoxyguanosine 5′-triphosphate (BuPdGTP), N^2-(4-butylphenyl)- 2′-deoxyguanosine 5′-(P^2,P^3-carbonyltriphosphonate) (BuPdGMPPCOP), N^2-ethyl-2′-deoxyguanosine 5′-[…] (EtdGTP), N^2-hexyl-2′-deoxyguanosine 5′-triphosphate (HexdGTP) and Acyclovir triphosphate (ACV-TP) were prepared in sterile distilled water, while those of 2-amino-4-chloro-6-(3,4-dichloroanilino)pyrimidine, 2-amino-4-chloro-6-(3,5-dichloroanilino)pyrimidine, N^2-(3,4-dichlorobenzyl)guanine (DCBG), N^2-(3-fluoro,4-chlorobenzyl)guanine, 3-(4-hydroxybutyl)-6-(3-ethyl-4-methylanilino)uracil (HB-EMAU), and 7-acetoxypentyl-(3,4-dichlorobenzyl)guanine (7-acetoxypentyl-DCBG) were prepared in DMSO. All stock solutions were stored at −20 °C until used. Test concentrations of compounds were prepared by diluting stock solution with 10 mM Tris–HCl pH 8.0 and evaluated in triplicate. Compounds were added directly to the reaction mixtures except for NEM that was pre-incubated with enzyme for 30 min on ice before addition to the reaction mixture. Polymerase activity assays were conducted as described above.

[2] = system: Plasmodium falciparum K1 strain; assay: Inhibition of intra-erythrocytic P. falciparum growth in culture (SYBR Green I-based assay); format: cell-based; settings: K1 strain (chloroquine- and pyrimethamine-resistant), in vitro growth, triplicate
Protocol: Plasmodium falciparum strain K1, a chloroquine- and pyrimethamine-resistant strain from Thailand [28] was cultivated in RPMI 1640 medium (Invitrogen™, CA, USA) supplemented with 10 % human serum and human red blood cell (RBC) at 37 °C under an atmosphere of 5 % CO2. Plasmodium falciparum cultures containing mostly trophozoite and schizont stages were harvested when parasitaemia was >10 % by centrifugation at 500×g for 10 min at 25 °C.
Plasmodium falciparum K1 strain was synchronized at ring stage using 5 % D-sorbitol treatment and then mixed with culture medium containing RPMI 1640 medium supplement with 10 % human serum. Twofold serial dilutions of each test compound were evaluated in triplicate. Parasite growth was determined by a SYBR Green I-based assay. Dose–response curves and IC50 values were obtained using SigmaPlot 12.0.

[3] = design: method as in PMID 21684746; settings: potent antibiotic; cited from earlier work
[4] = design: method as in PMID 21684746; settings: IP dose of 60 mg/kg; cited from earlier work
[5] = recombinant PfPolδ-cat DNA polymerase activity, activated CT-DNA, 1 h at 37 °C, triplicate, read-out: IC50 PfPolδ-cat

T1 sequence (P30315 whole entry): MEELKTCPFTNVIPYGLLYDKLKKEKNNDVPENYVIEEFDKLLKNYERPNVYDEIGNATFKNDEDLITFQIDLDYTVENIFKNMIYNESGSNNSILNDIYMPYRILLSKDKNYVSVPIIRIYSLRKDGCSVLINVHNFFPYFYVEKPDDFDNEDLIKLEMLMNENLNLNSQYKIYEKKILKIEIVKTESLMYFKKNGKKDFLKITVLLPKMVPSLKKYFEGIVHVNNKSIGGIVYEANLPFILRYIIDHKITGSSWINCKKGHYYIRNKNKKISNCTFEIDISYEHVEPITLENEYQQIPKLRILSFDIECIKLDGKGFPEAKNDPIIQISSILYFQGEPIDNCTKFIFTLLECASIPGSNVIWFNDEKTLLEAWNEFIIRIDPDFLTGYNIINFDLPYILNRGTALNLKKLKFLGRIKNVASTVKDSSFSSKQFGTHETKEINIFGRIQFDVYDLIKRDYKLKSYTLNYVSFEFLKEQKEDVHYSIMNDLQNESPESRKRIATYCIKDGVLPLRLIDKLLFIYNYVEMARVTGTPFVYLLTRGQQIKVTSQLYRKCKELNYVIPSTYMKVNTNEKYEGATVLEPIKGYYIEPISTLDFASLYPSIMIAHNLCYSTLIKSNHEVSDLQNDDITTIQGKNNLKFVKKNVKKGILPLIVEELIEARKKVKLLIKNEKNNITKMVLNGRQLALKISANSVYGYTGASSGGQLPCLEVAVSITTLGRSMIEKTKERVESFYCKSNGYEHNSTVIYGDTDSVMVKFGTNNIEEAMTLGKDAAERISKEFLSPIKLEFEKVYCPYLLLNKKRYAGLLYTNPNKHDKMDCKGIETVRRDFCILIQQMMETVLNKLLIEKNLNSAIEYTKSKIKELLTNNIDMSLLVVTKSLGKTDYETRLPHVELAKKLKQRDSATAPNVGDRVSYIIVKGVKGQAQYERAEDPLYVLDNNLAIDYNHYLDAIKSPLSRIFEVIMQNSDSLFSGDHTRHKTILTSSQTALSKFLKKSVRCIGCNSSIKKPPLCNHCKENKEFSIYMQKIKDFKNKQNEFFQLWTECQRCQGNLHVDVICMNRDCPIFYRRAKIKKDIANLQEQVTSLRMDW

## CC(=O)OCCCCCn1cnc2nc(NCc3ccc(Cl)c(Cl)c3)[nH]c(=O)c21 [7-acetoxypentyl-DCBG, 7-acetoxypentyl-(3,4-dichlorobenzyl)guanine]
[1]; [5]
  IC50: 55 ± 3.4 µM
[2]
  IC50: 4.1 ± 0.2 µM
[3]
  MIC: 1.25 µg/mL (≈ 2.85 µM)
[4]
  mice survived after treatment: 80%

## O=c1[nH]c(NCc2ccc(Cl)c(Cl)c2)nc2nc[nH]c12 [DCBG, N^2-(3,4-dichlorobenzyl)guanine]
[2]; Plasmodium falciparum
  IC50: 8.8 ± 0.5 µM

## Nc1nc(Cl)cc(Nc2cc(Cl)cc(Cl)c2)n1 [2-amino-4-chloro-6-(3′, 5′-dichloroanilino)pyrimidine]
[1]; [5]
  IC50: 185 ± 7.7 µM
[2]; Plasmodium falciparum
  IC50: 34.4 ± 0.4 µM

## C[C@@]1(CO)[C@H](O)CC[C@@]2(C)[C@H]1CC[C@H]1C[C@@H]3C[C@@]12CC[C@]3(O)CO [aphidicolin, reference compound]
[1]
  IC50: 11.8 µM

## O=c1[nH]c(NCc2ccc(Cl)c(F)c2)nc2nc[nH]c12 [N^2-(3-fluoro,4-chlorobenzyl)guanine]
[2]; Plasmodium falciparum
  IC50: 7.4 ± 0.3 µM

## Nc1nc(Cl)cc(Nc2ccc(Cl)c(Cl)c2)n1 [2-amino-4-chloro-6-(3′,4′-dichloroanilino)pyrimidine]
[1]; [5]
  IC50: 104 ± 5.6 µM
[2]; Plasmodium falciparum
  IC50: 3.8 ± 0.3 µM

## CCCCCCNc1nc2c(ncn2[C@H]2C[C@H](O)[C@@H](COP(=O)(O)OP(=O)(O)OP(=O)(O)O)O2)c(=O)[nH]1 [HexdGTP, N^2-hexyl-2′-deoxyguanosine 5′-triphosphate]
[2]; Plasmodium falciparum
  IC50: 86.4 ± 0.2 µM

## CCCCc1ccc(Nc2nc3c(ncn3[C@H]3C[C@H](O)[C@@H](COP(=O)(O)OP(=O)(O)OP(=O)(O)O)O3)c(=O)[nH]2)cc1 [BuPdGTP, N^2-(4-butylphenyl)-2′-deoxyguanosine 5′-triphosphate]
[1]; [5]
  IC50: 38 ± 1.7 µM
[2]; Plasmodium falciparum
  IC50: 85.6 ± 3.7 µM

## Nc1nc2c(ncn2COCCOP(=O)(O)OP(=O)(O)OP(=O)(O)O)c(=O)[nH]1 [Acyclovir triphosphate]
[2]; Plasmodium falciparum
  IC50: 347 ± 8.3 µM

## CCCCc1ccc(Nc2nc3c(ncn3C3CC(O)C(COP(=O)(O)OP(=O)(O)C(=O)P(=O)(O)O)O3)c(=O)[nH]2)cc1 (centres unmarked) [BuPdGMPPCOP, N^2-(4-butylphenyl)-2′-deoxyguanosine 5′-(P^2,P^3-carbonyltriphosphonate)]
[1]; recombinant PfPolδ-cat DNA polymerase activity, 100 μM compound
  IC50 PfPolδ-cat (Inactive = <20 % inhibition at 100 μM): Inactive^a
[2]
  IC50: 173 ± 2.7 µM
